Results taken from patent US20260242478A1, “ANTIBODIES FOR TARGETING PSMA AND CD28 AND USES THEREOF” (Janux Therapeutics, Inc., priority 2023, published 2026).
Where no end group is shown, it is not given here.

Tested on: anti-CD28 scFv
Experiment: Panning ELISA of clonal phage, anti-CD28 scFv, with or without CD28 soluble protein (Peptide-9 library)
Type: binding
Details: Peptide-9 library, background (no anti-CD28 scFv)
Experimental: Clonal phage were harvested as crude supernatants and screened via standard enzyme linked immunosorbent assays (ELISAs). […] Prior to the addition of clonal phage, wells were incubated with blocking buffer and CD28 soluble protein or blocking buffer alone. Without washing or aspirating, clonal phage supernatants were then added to the wells and incubated for a short time. Wells were then washed followed by detection of bound phage using a horse radish peroxidase conjugated anti-M13 antibody. Clonal phage of interest were then sent for sequence analysis.

anti-CD28 scFv, sequence (as listed by the source): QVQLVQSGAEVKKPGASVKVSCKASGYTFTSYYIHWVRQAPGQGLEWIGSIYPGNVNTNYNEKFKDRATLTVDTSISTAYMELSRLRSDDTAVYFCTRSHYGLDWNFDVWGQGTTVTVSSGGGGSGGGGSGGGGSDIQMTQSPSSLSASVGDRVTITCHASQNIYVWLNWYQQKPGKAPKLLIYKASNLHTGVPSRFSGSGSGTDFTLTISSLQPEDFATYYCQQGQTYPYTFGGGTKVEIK

Substance | Background signal
Phage-39 (MDWCPMHLWHQCFN; not fully specified; cysteine pairing not given here) | 0.073
Phage-40 (MDWCPIDMWDQCFN; not fully specified; cysteine pairing not given here) | 0.061
Phage-41 (MAWCPRDKWSECFS; not fully specified; cysteine pairing not given here) | 0.062
Phage-42 (MDWCPRHLWVHCFN; not fully specified; cysteine pairing not given here) | 0.071
Phage-43 (MDWCPRALWHECFY; not fully specified; cysteine pairing not given here) | 0.115
Phage-44 (MDWCPIALWAECFN; not fully specified; cysteine pairing not given here) | 0.111
Phage-45 (MDWCPRPLWHECFS; not fully specified; cysteine pairing not given here) | 0.078
Phage-46 (MHWCPIDLWAECYA; not fully specified; cysteine pairing not given here) | 0.082
Phage-47 (MAWCPVYLWHECFN; not fully specified; cysteine pairing not given here) | 0.094
Phage-48 (IDWCPRYLWDECYN; not fully specified; cysteine pairing not given here) | 0.061
Phage-49 (MSWCPIHLWNECFN; not fully specified; cysteine pairing not given here) | 0.083
Phage-50 (MDWCPPYLWNVCFS; not fully specified; cysteine pairing not given here) | 0.063
Phage-51 (MDWCPMDLWDYCFN; not fully specified; cysteine pairing not given here) | 0.071
Phage-52 (MDWCPINLWDECFS; not fully specified; cysteine pairing not given here) | 0.062
Phage-53 (MDWCPMHLWNKCFN; not fully specified; cysteine pairing not given here) | 0.071
Phage-54 (MNWCPRDMWYQCFN; not fully specified; cysteine pairing not given here) | 0.068
Phage-55 (QDWCPRHMWSFCFH; not fully specified; cysteine pairing not given here) | 0.138
Phage-56 (MHWCPMDQWSNCFN; left off: large carriers) | 0.062
Phage-57 (MDWCPRHRWVDCFY; left off: large carriers) | 0.073
Phage-58 (MHWCPIDRWADCFN; left off: large carriers) | 0.074
Phage-59 (MDWCPRDSWHLCFA; left off: large carriers) | 0.073
Phage-60 (MDWCPRTLWYLCFN; left off: large carriers) | 0.508
Phage-61 (MVSCPTTMWNRCFN; left off: large carriers) | 0.079

Substance | Background signal
Phage-62 (MDWCPSYLWNECFF; left off: large carriers) | 0.065
Phage-64 (MDWCPRALWAECFN; left off: large carriers) | 0.068
Phage-65 (MDWCPMYLWNECFN; left off: large carriers) | 0.064
Phage-93 (MDWCPRYLWTVCFS) | 0.115
Phage-94 (MDWCPRDLWSLCFY) | 0.065
Phage-95 (MDWCPRFLWSECFN) | 0.062
Phage-96 (MDWCPRTLWAYCFN) | 0.070
Phage-97 (MDWCPKDLWDYCFA) | 0.078
Phage-98 (MDWCPKYLWDVCFN) | 0.096
Phage-99 (MDWCPRYLWNMCFH) | 0.114
Phage-100 (MDWCPRYLWTECFN) | 0.062
Phage-109 (MDWCPKNLWHVCFN) | 0.081
Phage-110 (MDWCPRYLWDECFN) | 0.069
Phage-111 (MDWCPFYLWNECFY) | 0.099
Phage-112 (MHWCPRALWDVCYN) | 0.077
Phage-113 (MDWCPRDLWNVCFF) | 0.164
Phage-114 (MDWCPRYLWFECFA) | 0.066
Phage-115 (MDWCPRYLWHECFN) | 0.105
Phage-116 (MDWCPRDLWYACFA) | 0.072
Phage-117 (MDWCPRYLWFECFS) | 0.079
Phage-118 (MDWCPRHLWDECFF) | 0.074
Phage-119 (MDWCPRYLWHMCYS) | 0.129
Phage-120 (MDWCPRDLWHACFS) | 0.074

Substance | Background signal
Phage-121 (MDWCPRDLWHVCFF) | 0.068
Phage-122 (MDWCPRDLWDQCYA) | 0.059
Phage-123 (MDWCPIHLWNECFA) | 0.104
Phage-124 (MDWCPRPLWDMCFF) | 0.063
Phage-125 (MDWCPVSLWHVCFY) | 0.107
Phage-126 (MDWCPRFLWNECFN) | 0.072
Phage-127 (MDWCPRALWNECFA) | 0.080
Phage-128 (MDWCPRDLWIECFF) | 0.084
Phage-129 (MDWCPSYLWTVCFA) | 0.062
Phage-130 (MDWCPRYLWDACFF) | 0.066
Phage-131 (MDWCPRSLWIYCFN) | 0.113
Phage-132 (MDWCPTYLWFECFN) | 0.205
Phage-133 (MDWCPRFLWDECFF) | 0.064
Phage-134 (MDWCPSYLWHECFA) | 0.096
Phage-135 (MDWCPKFLWHECFS) | 0.065
Phage-136 (MHWCPIYLWDECFN) | 0.071
Phage-137 (MDWCPRYLWHECFH) | 0.101
Phage-138 (MDWCPTNLWHECFA) | 0.061
Phage-139 (MDWCPRDLWDVCFA) | 0.096
Phage-140 (MDWCPMDLWDVCFN) | 0.090
Phage-141 (MDWCPRSLWNVCFF) | 0.106

Same assay, conditions: background (no anti-CD28 scFv)

Substance | Background signal
Phage-269 (DSFCTWSAWQECGR; not fully specified; cysteine pairing not given here) | 0.072
Phage-270 (MDWCPRDFWAFCFF; cysteine pairing not given here; also: large carriers left off) | 0.118
Phage-271 (MDWCPTSFWNRCFH; not fully specified; cysteine pairing not given here; also: large carriers left off) | 0.102
Phage-272 (MVWCMSVGWAVCLN; cysteine pairing not given here; also: large carriers left off) | 0.289
Phage-273 (IDWCPTAGWTYCWF; not fully specified; cysteine pairing not given here) | 0.071
Phage-274 (WVSCLRHHWLECFH; not fully specified; cysteine pairing not given here) | 0.781
Phage-275 (MDWCPRDHWVDCYS; not fully specified; cysteine pairing not given here) | 0.172
Phage-276 (IDWCPKIHWDLCYF; not fully specified; cysteine pairing not given here) | 0.072
Phage-277 (MDWCPRSHWSECFS; not fully specified; cysteine pairing not given here) | 0.080
Phage-279 (MDWCPRYLWAECFN; not fully specified; cysteine pairing not given here) | 0.068
Phage-280 (MDWCPRYLWDYCFA) | 0.073
Phage-281 (MDWCPRSLWFLCFN) | 1.110
Phage-282 (MDWCPRDLWFACFA) | 0.060
Phage-283 (MDWCPRHLWNECFN) | 0.079
Phage-285 (MDWCPRDLWAMCFA) | 0.071
Phage-286 (MERCPRYLWHMCYS) | 0.164

Substance | Background signal
Phage-288 (MDWCPIALWDFCFA) | 0.073
Phage-290 (MDWCPRDLWSVCFS) | 0.090
Phage-291 (MDWCPRYLWHVCFY) | 0.227
Phage-292 (MDWCPRALWDHCFF) | 0.081
Phage-293 (MDWCPRHLWFECFN) | 0.064
Phage-294 (MDWCPRSLWDYCFA) | 0.115
Phage-299 (MDWCPIYLWAECFN) | 0.078
Phage-300 (MDWCPRHLWFECFF) | 0.178
Phage-301 (MDWCPRYLWHECFF) | 0.082
Phage-302 (MDWCPRYLWHVCFD) | 0.068
Phage-303 (MDWCPRYLWTECFS) | 0.074
Phage-304 (MDWCPKFLWDECFA) | 0.311
Phage-305 (MDWCPRDLWTECFS) | 0.080
Phage-306 (MDWCPRHLWNECFA) | 0.068
Phage-307 (MDWCPRYLWPVCFH) | 0.179
Phage-308 (MDWCPKSLWAECFN) | 0.395

Same assay, conditions: binding to anti-CD28 scFv in presence of CD28 soluble protein

Substance | CD28 scFv signal in presence of CD28
Phage-273 (IDWCPTAGWTYCWF; not fully specified; cysteine pairing not given here) | 0.075
